We go through 21 compounds from patent US7038049B2, “Haloanilino quinazolines and therapeutic use thereof” (Parker Hughes Institute, priority 1999, dated 2006).

What all share (type): cell-based
The test system of assay [1] is NALM-6 human leukemia cells. As to the kind of experiment: MTT cytotoxicity assay, NALM-6. As for the experimental part:
(§1) The cytotoxicity assay of various compounds against human tumor cell lines was performed using the MTT (3-[4,5-dimethylthiazol-2-yl]-2,5-diphenyl tetrazolium bromide) assay (Boehringer Mannheim Corp., Indianapolis, Ind.). Briefly, exponentially growing tumor cells were seeded into a 96-well plate at a density of 2.5×10^4 cells/well and incubated for 36 hours at 37° C. prior to drug exposure. On the day of treatment, culture medium was carefully aspirated from the wells and replaced with fresh medium containing the quinazoline compounds at concentrations ranging from 0.1 to 250 μM. Triplicate wells were used for each treatment.
(§2) Human cell lines were obtained from American Type Culture Collection (Rockville, Md.) and maintained as a continuous cell line in Dulbecco's modified Eagles' medium supplemented with 10% fetal bovine serum and antibiotics. Cells used in this study include human leukemia cells (NALM-6 and MOLT-3), human breast cancer cells ([…]), human prostate cancer cells (PC3), and human brain tumor cells (U373).
(§3) The cells were incubated with the various compounds for 24–36 hours at 37° C. in a humidified 5% CO2 atmosphere. To each well, 10 μl of MTT (0.5 mg/ml final concentration) was added and the plates were incubated at 37° C. for 4 hours to allow MTT to form formazan crystals by reacting with metabolically active cells. The formazan crystals were solubilized overnight at 37° C. in a solution containing 10% SDS in 0.01 M HCl. The absorbance of each well was measured in a microplate reader (Labsystems) at 540 nm and a reference wavelength of 690 nm. To translate the OD 540 values into the number of live cells in each well, the OD 540 values were compared to those on standard OD 540—versus—cell number curves generated for each cell line. The percent survival was calculated using the formula:
(§4) [formula] The IC50 values were calculated by non-linear regression analysis. Detection of Apoptosis
Background: Formazan colour is commonly taken as a measure of viable cells.

Assay [2] concerns MOLT-3 human leukemia cells. The assay can be described thus: MTT cytotoxicity assay, MOLT-3. The procedure:
as §1, §2, §3, §4

Assay [3] concerns BT20 human breast cancer cells. As to the kind of experiment: MTT cytotoxicity assay, BT20. As to conditions: Homo sapiens. The procedure:
as §1, §2, §3, §4

The test system of assay [4] is U373 human brain tumor cells. The assay can be described thus: MTT cytotoxicity assay, U373. As for the experimental part: as §1, §2, §3, §4
In assay [5] the test system is PC3 human prostate cancer cells. The assay can be described thus: MTT cytotoxicity assay, PC3. As to conditions: Table 5, fluoro-substituted, value ± spread. As for the experimental part: as §1, §2, §3, §4
[6] abbreviates: Homo sapiens, NALM-6, Table 2, chloro substituted, 24–36 hours.
The mark [7] stands for this setting: Homo sapiens, NALM-6, Table 4, OH substituted, 24–36 hours.
The mark [8] stands for this setting: Homo sapiens, MOLT-3, Table 2, chloro substituted, 24–36 hours.
[9] abbreviates: Homo sapiens, MOLT-3, Table 4, OH substituted, 24–36 hours.
Where [10] appears, read: BT-20, Table 2, chloro substituted, 24–36 hours.
Setting [11] is: BT-20, Table 4, OH substituted, 24–36 hours.
The mark [12] stands for this setting: Homo sapiens, U373 MG, Table 4, OH substituted, 24–36 hours.
[13] abbreviates: Homo sapiens, NALM-6, Table 1, bromo substituted, 24–36 hours.
The mark [14] stands for this setting: Table 4, OH substituted, 24–36 hours.
The mark [15] stands for this setting: Homo sapiens, MOLT-3, Table 1, bromo substituted, 24–36 hours.
Setting [16] is: BT-20, Table 1, bromo substituted, 24–36 hours.
The mark [17] stands for this setting: Homo sapiens, NALM-6, Table 5, fluoro-substituted, value ± spread.
Setting [18] is: Homo sapiens, MOLT-3, Table 5, fluoro-substituted, value ± spread.
[19] abbreviates: BT-20, Table 5, fluoro-substituted, value ± spread.
Where [20] appears, read: Homo sapiens, U373 MG, Table 5, fluoro-substituted, value ± spread.
The mark [21] stands for this setting: Homo sapiens, NALM-6, Table 3, iodide substituted, 24–36 hours.
[22] abbreviates: Homo sapiens, MOLT-3, Table 3, iodide substituted, 24–36 hours.
Setting [23] is: BT-20, Table 3, iodide substituted, 24–36 hours.
Where [24] appears, read: Homo sapiens, U373 MG, Table 3, iodide substituted, 24–36 hours.

As usually defined, the IC50 is the concentration that inhibits the measured activity by half. Higher therefore signals a need for much substance. As for `COc1cc2ncnc(Nc3cc(Cl)ccc3O)c2cc1OC` [HI-P93, 4-(3′-Chlooro-6′-hydroxylphenyl)amino-6,7-dimethoxyquinazoline], the IC50 in assay [1] (setting [6]), in assay [1] (setting [7]), in assay [2] (setting [8]), in assay [2] (setting [9]), in assay [3] (setting [10]) and in assay [3] (setting [11]) was greater than 250 µM each time. In assay [4] (setting [12]), this compound gave an IC50 greater than 250 µM.

As for `COc1cc2ncnc(Nc3cc(Br)c(O)c(Br)c3)c2cc1OC` [HI-P97, 4-(3′,5′-Dibromo-4′-hydroxylphenyl)-amino-6,7-dimethoxyquinazoline], the 50% inhibitory concentration (IC50) was greater than 250 µM in assay [1] (setting [13]); greater than 250 µM in assay [1] (setting [14]); greater than 250 µM in assay [2] (setting [15]); greater than 250 µM in assay [2] (setting [14]); 26.1 µM in assay [3] (setting [16]); 161 µM in assay [4] (setting [12]).

As for `COc1cc2ncnc(Nc3c(F)c(F)c(Br)c(F)c3F)c2cc1OC` [HI-P144, 4-(2′,3′,5′,6′-tetrafluoro-4′-bromophenyl)amino-6,7-dimethoxyquinazoline], the IC50 is greater than 250 µM in assay [5]; 28.1 ± 2.6 µM in assay [1] (setting [17]); 24.9 ± 3.7 µM in assay [2] (setting [18]); 63.4 ± 5.5 µM in assay [3] (setting [19]); 49.5 ± 11.3 µM in assay [4] (setting [20]).

Consider `COc1cc2ncnc(Nc3cc(Cl)c(O)c(Cl)c3)c2cc1OC` [HI-P189, 4-(4′-Hydroxyl-3′,5′-dichlorophenyl)amino-6,7-dimethoxyquinazoline], for which the IC50 in assay [1] (setting [6]), in assay [1] (setting [7]), in assay [2] (setting [8]), in assay [2] (setting [9]), in assay [3] (setting [10]) and in assay [3] (setting [11]) was greater than 250 µM each time. The IC50 in assay [4] (setting [12]) is greater than 250 µM.

In the case of `COc1cc2ncnc(Nc3ccc(Br)cc3CO)c2cc1OC` [HI-P190, 4-(4′-Bromo-6′-hydroxymethylphenyl)-amino-6,7-dimethoxyquinazoline], the IC50 in assay [1] (setting [13]), in assay [1] (setting [7]), in assay [2] (setting [15]), in assay [2] (setting [9]), in assay [3] (setting [16]) and in assay [3] (setting [11]) was greater than 250 µM throughout. Further, in assay [4] (setting [12]), the IC50 was greater than 250 µM.

For `COc1cc2ncnc(Nc3ccc(O)cc3O)c2cc1OC` [HI-P192, 4-(2′,4′-Dihydroxyphenyl)-amino-6,7-dimethoxyquinazoline], the IC50 in assay [1] (setting [7]), in assay [2] (setting [9]), in assay [3] (setting [11]) and in assay [4] (setting [12]) was greater than 250 µM in each case.

Take `COc1cc2ncnc(Nc3ccc(O)c(Cl)c3)c2cc1OC` [HI-P197, 4-(3′-Chloro-4′-hydroxylphenyl)-amino-6,7-dimethoxyquinazoline]: the IC50 in assay [1] (setting [6]) amounted to 39.3 µM; in assay [1] (setting [7]), 68.5 µM; in assay [2] (setting [8]) it was 68 µM; in assay [2] (setting [9]), 63.8 µM; in assay [3] (setting [10]), 137 µM; in assay [3] (setting [11]) it was 71.5 µM. The compound also displayed an IC50 in assay [4] (setting [12]) greater than 250 µM.

With `COc1cc2ncnc(Nc3ccc(Br)cc3F)c2cc1OC` [HI-P214, 4-(2′-Fluoro-4′-bromophenyl)-amino-6,7-dimethoxyquinazoline], the IC50 in assay [5], in assay [1] (setting [13]), in assay [1] (setting [17]), in assay [2] (setting [15]), in assay [2] (setting [18]) and in assay [3] (setting [16]) was greater than 250 µM in each case. Moreover, the IC50 in assay [3] (setting [19]) and in assay [4] (setting [20]) was greater than 250 µM throughout.

Take `COc1cc2ncnc(Nc3cccc(C(F)(F)F)c3)c2cc1OC` [HI-P218, 4-(3′-Trifluoromethylphenyl)-amino-6,7-dimethoxyquinazo-line]: the IC50 amounted to 126 ± 5.8 µM in assay [5]; 37 ± 5.8 µM in assay [1] (setting [17]); 33.2 ± 3.3 µM in assay [2] (setting [18]); 37.6 ± 5.2 µM in assay [3] (setting [19]); 29.9 ± 7.3 µM in assay [4] (setting [20]).

Regarding `COc1cc2ncnc(Nc3ccc(F)cc3)c2cc1OC` [HI-P221, 4-(4′-Fluorophenyl)-amino-6,7-dimethoxyquinazoline], the IC50 in assay [5] is greater than 250 µM; in assay [1] (setting [17]), 100 ± 4.8 µM; in assay [2] (setting [18]), 98.7 ± 3.8 µM; in assay [3] (setting [19]), 30.7 ± 7.9 µM; in assay [4] (setting [20]) it was 28.8 ± 12.7 µM.

Turning to `COc1cc2ncnc(Nc3ccc(C(F)(F)F)cc3)c2cc1OC` [HI-P223, 4-(4′-Trifluoromethylphenyl)-amino-6,7-dimethoxyquinazoline], the IC50 was greater than 250 µM in assay [5]; 39.5 ± 8 µM in assay [1] (setting [17]); 40.8 ± 15.1 µM in assay [2] (setting [18]); 27.6 ± 8.6 µM in assay [3] (setting [19]); 32.1 ± 3.9 µM in assay [4] (setting [20]).

Take `COc1cc2ncnc(Nc3ccccc3Br)c2cc1OC` [HI-P261, 4-(2′-Bromophenyl)-amino-6,7-dimethoxyquinazoline]: the IC50 was 72.6 µM in assay [1] (setting [13]), 148 µM in assay [2] (setting [15]) and 219 µM in assay [3] (setting [16]).

Turning to `COc1cc2ncnc(Nc3c(Br)cccc3Br)c2cc1OC` [HI-P262, 4-(2′,6′-Dibromophenyl)-amino-6,7-dimethoxyquinazoline], the IC50 in assay [1] (setting [13]), in assay [2] (setting [15]) and in assay [3] (setting [16]) was greater than 250 µM in each case.

As to `COc1cc2ncnc(Nc3ccccc3Cl)c2cc1OC` [HI-P268, 4-(2′-Chlorophenyl)-amino-6,7-dimethoxyquinazoline], the IC50 in assay [1] (setting [6]) is 215 µM; in assay [2] (setting [8]) it was 227 µM; in assay [3] (setting [10]) it was 122 µM.

With `COc1cc2ncnc(Nc3ccc(Cl)cc3)c2cc1OC` [HI-P269, 4-(4′-Chlorophenyl)-amino-6,7-dimethoxyquinazoline], the IC50 in assay [1] (setting [6]), in assay [2] (setting [8]) and in assay [3] (setting [10]) was greater than 250 µM in each case.

For the compound `COc1cc2ncnc(Nc3ccccc3I)c2cc1OC` [HI-P270, 4-(2′-Iodophenyl)-amino-6,7-dimethoxyquinazoline], the IC50 in assay [1] (setting [21]) is greater than 250 µM; in assay [2] (setting [22]) it was 78.9 µM; in assay [3] (setting [23]), greater than 250 µM; in assay [4] (setting [24]), greater than 250 µM.

With `COc1cc2ncnc(Nc3cccc(I)c3)c2cc1OC` [HI-P271, 4-(3′-Iodophenyl)-amino-6,7-dimethoxyquinazoline], the IC50 in assay [1] (setting [21]) was 6.1 µM; in assay [2] (setting [22]) it was 9.6 µM; in assay [3] (setting [23]) it was greater than 250 µM; in assay [4] (setting [24]), greater than 250 µM.

Regarding `COc1cc2ncnc(Nc3cc(I)c(O)c(I)c3)c2cc1OC` [HI-P294, 4-(4′-Hydroxy-3,5-diiodophenyl)-amino-6,7-dimethoxy-quinazoline], the IC50 in assay [1] (setting [21]), in assay [1] (setting [7]), in assay [2] (setting [22]), in assay [2] (setting [9]), in assay [3] (setting [23]) and in assay [3] (setting [11]) was greater than 250 µM in each case. Besides, the IC50 in assay [4] (setting [24]) and in assay [4] (setting [14]) was greater than 250 µM each time.

`COc1cc2ncnc(Nc3ccc(O)c(I)c3)c2cc1OC` [HI-P299, 4-(4′-Hydroxy-3′-iodophenyl)-amino-6,7-dimethoxyquinazoline]: the IC50 in assay [1] (setting [21]) was 15.4 µM; in assay [1] (setting [7]) it was 66.3 µM; in assay [2] (setting [22]), 60.1 µM; in assay [2] (setting [9]), 51.2 µM; in assay [3] (setting [23]) it was greater than 250 µM; in assay [3] (setting [11]), greater than 250 µM. In addition, the IC50 in assay [4] (setting [24]) and in assay [4] (setting [14]) was greater than 250 µM in each case.

For the compound `COc1cc2ncnc(Nc3ccc(I)cc3)c2cc1OC` [HI-P300, 4-(4′-Iodophenyl)-amino-6,7-dimethoxyquinazoline], the IC50 came out at 58 µM in assay [1] (setting [21]), 59.1 µM in assay [2] (setting [22]), 72.6 µM in assay [3] (setting [23]) and 116 µM in assay [4] (setting [24]).

For the compound `COc1cc2ncnc(Nc3ccc(Cl)c4ccccc34)c2cc1OC` [HI-P415, 4-(4′-Chloronaphthy-1′)-amino-6,7-dimethoxyquinazoline], the IC50 in assay [1] (setting [6]) is 67.9 µM; in assay [2] (setting [8]) it was greater than 250 µM; in assay [3] (setting [10]), 38.1 µM.
